Data on 3 molecules can be found in US8921582B2, “Oligo- and polyfurans, preparation and uses thereof” (Yeda Research and Development Co. Ltd., priority 2009, dated 2014).

Structures are written as SMILES. Values after ≈ are worked out from the molar mass of the structure shown. Like-named read-outs stand apart in the source and are kept apart here. Where only a bound is given, the exact number is not on record here.

Usually solubility stands for the dissolved amount per volume that the medium holds.

A short description of data set [1]: Thermogravimetric analysis (TGA) / stability in air. The conditions noted are these: stable in air in the absence of light, FIG. 3. In kind it is physicochemical. The procedure: FIG. 3 depicts Thermogravimetric Analysis (TGA) of oligofurans (a) 5F-8F and (b) 9F under N2, rate: 5° C./min.
FIG. 11 depicts thermogravimetric analysis (TGA) of oligofurans 6F, 8F and DH-6F under N2. Rate: 5° C./min.

The nature of data set [2]: Solubility of oligofurans in organic solvent. It counts as physicochemical. The conditions noted are these: for solubility: in chloroform (solvent stated).

`c1coc(-c2ccc(-c3ccc(-c4ccc(-c5ccc(-c6ccco6)o5)o4)o3)o2)c1` [6F, α-sexifuran] returned a decomposition temperature in data set [1] of 303 °C. In data set [2] (in chloroform), the “solubility of 6F relative to corresponding 6T” value is reported as “over 10 times”. Further, the solubility in data set [2] (organic solvent or mixture, read-out: solubility) worked out at 700 µg/mL (≈ 1760 µM). `c1csc(-c2ccc(-c3ccc(-c4ccc(-c5ccc(-c6cccs6)s5)s4)s3)s2)c1` [6T, α-sexithiophene, reference compound] registered a solubility in data set [2] of less than 50 µg/mL.

For `c1coc(-c2ccc(-c3ccc(-c4ccc(-c5ccc(-c6ccc(-c7ccc(-c8ccc(-c9ccco9)o8)o7)o6)o5)o4)o3)o2)c1` [9F, α-nonafuran], the “solubility in warm acetone” value in data set [2] (warm acetone, Soxhlet extraction) is “slightly soluble”.
